The inhibition is the relative decrease from the control value, in per cent. One may read the IC50 as the concentration that inhibits the measured activity by half.

Holding throughout (type): biochemical
Assay [1] concerns the target T1, HER-2 (Homo sapiens, UniProt P04626).
T1 construct: His6 with thrombin site (N); purchased Proqinase (Freiburg, Germany)
The assay is described as follows: HER-2 Kinase Assay. As to conditions: for inhibition at 1 µM: test concentration of 1 μM; for IC50: value in parentheses. The method in brief: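 Read-out was scintillation counting of 33P incorporated into biotinylated polyGluTyr captured on streptavidin plates. Reactions ran 1 h at 30 °C with GST-fused HER-2 residues 679–1255, 1 μM ATP, Mn2+ and Mg2+ at pH 7.5; data given as percent inhibition at 1 μM, with IC50 where determined.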

For assay [2], the target named is T2, c-Src kinase (human) (Homo sapiens, UniProt P12931).
T2 construct: purchased Upstate Biotechnology, Lake Placid, N.Y
The assay is described as follows: c-Src Kinase Assay. As to conditions: test concentration of 2 μM; multiple values are separate assay results. On the procedure: A mixture of a 10× kinase buffer (80 mM MOPS at pH 7.0, 2 mM EDTA and 100 mM Magnesium Chloride), ATP (5 μM final from a 10 mM stock), a Cdc2 peptide KVEKIGEGTYGVVYK (100 μM final from a 2.5 mM stock), γ-^33P ATP (10 μCl/μL stock) and water (for a total of 20 μL/well) was added to each well of a Streptavidin Flashplate.
Test compound in 100% DMSO (0.5 μL) was added to the appropriate wells. Diluted c-Src kinase (human) (Accession Number SWISS-PROT P12931) (Upstate Biotechnology, Lake Placid, N.Y.) (diluted in a buffer consisting of 20 mM MOPS at pH 7.0, 1 mM EDTA, β-mercaptoethanol (0.1%), Brij-35 (0.01%), glycerol (5%), and 1 mg/mL bovine serum albumin) (2.5 μL) was added to the wells to initiate the reactions. The reaction plates were incubated at 30° C. for 40 min. The reaction was terminated by the addition of a 3% phosphoric acid solution (5 μL). The reaction product (10 μL) was spotted onto a P30 filtermat and washed for 5 minutes in phosphoric acid (75 mM). The wash sequence was repeated two more times, followed with one final wash in methanol. The plates were then dried, sealed and read on the TopCount scintillation counter after adding 30 μL scintillation fluid.
The c-Src inhibition values were derived using the percent inhibition formula provided in Example 164 and are shown as percent in Table 2 at a test concentration of 2 μM. For those compounds with an IC50, the IC50 value in μM is shown in parentheses. For compounds with multiple test values, each value represents a separate assay result.

For assay [3], the target named is T3, Lyn kinase (human) (Homo sapiens, UniProt P07948).
T3 construct: purchased Upstate Biotechnology, Lake Placid, N.Y
The assay is described as follows: Lyn Kinase Assay. As to conditions: test concentration of 2 μM. How it is done: A mixture of a 10× kinase buffer (500 mM MOPS at pH 7.5, 1 mM EGTA, 1 mM Sodium Vanadate, 1% β-mercaptoethanol and 100 mM Magnesium Acetate), ATP (5 μM final from a 10 mM stock), polyGluTyr (0.1 mg/mL final from a 1 mg/mL stock), γ-^33P ATP (10 μCl/μL stock) and water (for a total of 20 μL/well) was added to each well of a Streptavidin Flashplate.
Test compound in 100% DMSO (0.5 μL) was added to the appropriate wells. Diluted Lyn kinase (human)(Accession Number EMBL M16038) (Upstate Biotechnology, Lake Placid, N.Y.) (diluted in a buffer consisting of 50 mM Tris at pH 7.5, 0.1 mM EGTA, Sodium Vanadate (0.1 mM), β-mercaptoethanol (0.1%) and 1 mg/mL bovine serum albumin) (2.5 μL) was added to the wells to initiate the reactions.
The reaction plates were incubated at 30° C. for 40 min. The reaction was terminated by the addition of a 3% phosphoric acid solution (5 μL). The reaction product (10 μL) was spotted onto a P30 filtermat and washed for 5 minutes in phosphoric acid (75 mM). The wash sequence was repeated two more times, followed with one final wash in methanol. The plates were then dried, sealed and read on the TopCount scintillation counter after adding 30 μL scintillation fluid.
The Lyn inhibition values were derived according to the procedure described in Example 164 and are shown as percent in Table 3 at a test concentration of 2 μM. For those compounds with an IC50, the IC50 value in μM is shown in parentheses. For compounds with multiple test values, each value represents a separate assay result.

For assay [4], the target named is T4, EGFR (Homo sapiens, UniProt P00533).
T4 construct: The intracellular portion of EGFR started at nucleotide 2189 (corresponding to amino acid 667) and ended at the termination codon; made in house; host or cells: Sf9 insect cells (baculovirus)
As to the kind of experiment: EGFR Kinase Assay. As to conditions: for IC50: GST-EGFR, ATP 5 μM; for inhibition at 2 µM: test concentration of 2 μM, compounds without an IC50, read-out: EGFR inhibition in percent. The method, boiled down: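 Potency came from triplicate 16-point half-log titrations starting at 200 uM, with IC50 fitted from % inhibition against log concentration, or % inhibition at 2 μM otherwise. Reaction: Sf9-made GST–EGFR cytoplasmic region (aa 667 onward), biotin-polyGluTyr, 5 μM ATP with 33P tracer, pH 8.0 Tris/Mg/vanadate/DTT, 30 °C for 1 h; captured on streptavidin Flashplates and counted.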

T3 sequence (P07948 whole entry): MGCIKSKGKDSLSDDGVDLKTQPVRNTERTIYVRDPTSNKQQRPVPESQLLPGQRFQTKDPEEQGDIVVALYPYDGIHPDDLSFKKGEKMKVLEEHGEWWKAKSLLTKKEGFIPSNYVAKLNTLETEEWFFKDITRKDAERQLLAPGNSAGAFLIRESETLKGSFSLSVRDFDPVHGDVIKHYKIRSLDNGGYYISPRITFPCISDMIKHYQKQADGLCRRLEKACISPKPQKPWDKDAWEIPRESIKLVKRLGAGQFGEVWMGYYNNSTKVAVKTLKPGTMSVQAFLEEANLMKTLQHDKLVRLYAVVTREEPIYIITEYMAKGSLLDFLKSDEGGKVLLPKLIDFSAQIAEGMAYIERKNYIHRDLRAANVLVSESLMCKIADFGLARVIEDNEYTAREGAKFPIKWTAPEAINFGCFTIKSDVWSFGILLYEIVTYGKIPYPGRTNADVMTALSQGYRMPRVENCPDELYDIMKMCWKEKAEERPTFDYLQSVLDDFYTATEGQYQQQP
T4 sequence (P00533 669-1210 limits assumed): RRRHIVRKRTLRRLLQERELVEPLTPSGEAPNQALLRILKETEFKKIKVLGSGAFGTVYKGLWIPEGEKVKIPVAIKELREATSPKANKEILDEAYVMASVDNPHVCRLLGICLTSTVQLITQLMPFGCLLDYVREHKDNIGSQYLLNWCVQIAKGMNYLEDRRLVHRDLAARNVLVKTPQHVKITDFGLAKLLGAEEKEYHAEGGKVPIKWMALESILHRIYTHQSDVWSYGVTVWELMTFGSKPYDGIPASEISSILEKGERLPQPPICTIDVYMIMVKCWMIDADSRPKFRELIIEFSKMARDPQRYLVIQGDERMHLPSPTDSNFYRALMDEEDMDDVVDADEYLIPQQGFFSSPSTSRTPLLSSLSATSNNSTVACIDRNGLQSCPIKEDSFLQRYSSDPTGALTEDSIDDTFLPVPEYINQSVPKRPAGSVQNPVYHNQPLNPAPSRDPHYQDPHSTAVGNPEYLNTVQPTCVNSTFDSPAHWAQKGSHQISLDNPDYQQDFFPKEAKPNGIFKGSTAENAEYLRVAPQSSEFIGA
T2 sequence (P12931 whole entry): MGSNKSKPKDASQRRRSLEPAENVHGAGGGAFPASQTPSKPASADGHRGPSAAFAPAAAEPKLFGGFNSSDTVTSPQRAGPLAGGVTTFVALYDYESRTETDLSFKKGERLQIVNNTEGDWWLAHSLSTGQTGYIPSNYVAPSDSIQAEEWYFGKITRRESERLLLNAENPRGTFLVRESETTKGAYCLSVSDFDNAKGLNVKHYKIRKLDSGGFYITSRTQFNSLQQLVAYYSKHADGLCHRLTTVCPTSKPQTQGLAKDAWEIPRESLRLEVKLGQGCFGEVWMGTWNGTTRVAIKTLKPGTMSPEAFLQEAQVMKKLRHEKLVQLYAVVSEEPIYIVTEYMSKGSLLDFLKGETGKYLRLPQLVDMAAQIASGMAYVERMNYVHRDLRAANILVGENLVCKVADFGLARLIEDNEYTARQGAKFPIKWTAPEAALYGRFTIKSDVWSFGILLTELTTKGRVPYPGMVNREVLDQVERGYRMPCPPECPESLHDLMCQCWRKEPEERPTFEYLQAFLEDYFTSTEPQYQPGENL
T1 sequence (P04626 679-1255): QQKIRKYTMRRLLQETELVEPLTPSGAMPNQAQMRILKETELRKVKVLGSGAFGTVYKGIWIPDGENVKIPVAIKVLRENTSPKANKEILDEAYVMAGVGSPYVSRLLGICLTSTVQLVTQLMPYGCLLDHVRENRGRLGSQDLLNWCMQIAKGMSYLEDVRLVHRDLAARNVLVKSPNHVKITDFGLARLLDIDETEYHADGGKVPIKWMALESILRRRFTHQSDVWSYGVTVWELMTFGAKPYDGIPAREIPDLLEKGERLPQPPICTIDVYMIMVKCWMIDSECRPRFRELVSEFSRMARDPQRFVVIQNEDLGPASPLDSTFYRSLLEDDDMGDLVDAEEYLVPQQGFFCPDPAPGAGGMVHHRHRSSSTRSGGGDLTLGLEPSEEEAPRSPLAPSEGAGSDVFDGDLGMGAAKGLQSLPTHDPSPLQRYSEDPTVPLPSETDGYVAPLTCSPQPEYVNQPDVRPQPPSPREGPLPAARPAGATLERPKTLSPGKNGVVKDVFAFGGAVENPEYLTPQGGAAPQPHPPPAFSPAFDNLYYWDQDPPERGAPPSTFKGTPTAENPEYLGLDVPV

On to `COc1cc(N2C(=O)Nc3c(C(=O)Nc4ccc(OCCN5CCOCC5)c(OC)c4)sc4ncnc2c34)c(Cl)cc1Cl` [Cpd 34, 5-(2,4-dichloro-5-methoxy-phenyl)-4-oxo-4,5-dihydro-3H-1-thia-3,5,6,8-tetraaza-acenaphthylene-2-carboxylic acid [3-methoxy-4-(2-morpholin-4-yl-ethoxy)-phenyl]-amide], for which the inhibition at 1 µM in assay [1] was -14%. Further, the inhibition at 2 µM turned out to be 23% in assay [2] and 10% in assay [3]. The compound further had a concentration for half-maximal inhibition (IC50) in assay [4] of 5370 nM.
Take `Cc1cccc(Cl)c1N1C(=O)Nc2c(C(=O)Nc3ccc(C(O)CN4CCOCC4)cc3)sc3ncnc1c23` (stereo not shown) [Cpd 148, 5-(2-chloro-6-methyl-phenyl)-4-oxo-4,5-dihydro-3H-1-thia-3,5,6,8-tetraaza-acenaphthylene-2-carboxylic acid [4-(1-hydroxy-2-morpholin-4-yl-ethyl)-phenyl]-amide]: the inhibition at 1 µM in assay [1] is 30%. The inhibition at 2 µM was 53% in assay [2], 59% in assay [3] and 38% in assay [4].
For `O=C(Nc1ccc(CN2CCCCC2)cc1)c1sc2ncnc3c2c1NC(=O)N3c1ccc(F)c(Br)c1` [Cpd 155, 5-(3-bromo-4-fluoro-phenyl)-4-oxo-4,5-dihydro-3H-1-thia-3,5,6,8-tetraaza-acenaphthylene-2-carboxylic acid (4-piperidin-1-ylmethyl-phenyl)-amide], the inhibition at 1 µM in assay [1] came out at 88%. Besides, the concentration for half-maximal inhibition (IC50) amounted to 327 nM in assay [1] and 28 nM in assay [4]. Besides, the inhibition at 2 µM worked out at 18% in assay [2] and 41% in assay [3].
For `O=C(Nc1ccc(CCN2CCCCC2)cc1)c1sc2ncnc3c2c1NC(=O)N3c1ccc(Oc2ccccc2)c(Cl)c1` [Cpd 136, 5-(3-chloro-4-phenoxy-phenyl)-4-oxo-4,5-dihydro-3H-1-thia-3,5,6,8-tetraaza-acenaphthylene-2-carboxylic acid [4-(2-piperidin-1-yl-ethyl)-phenyl]-amide], in assay [1], the inhibition at 1 µM turned out to be 70%. Also, the IC50 amounted to 222 nM in assay [1] and 31 nM in assay [4]. Moreover, the inhibition at 2 µM is -41% in assay [2] and 43% in assay [3].
The corresponding values for `COc1ccc(N2C(=O)Nc3c(C(=O)Nc4ccc(CN5CCOCC5)cc4)sc4ncnc2c34)c(F)c1` [Cpd 65, 5-(2-fluoro-4-methoxy-phenyl)-4-oxo-4,5-dihydro-3H-1-thia-3,5,6,8-tetraaza-acenaphthylene-2-carboxylic acid (4-morpholin-4-ylmethyl-phenyl)-amide] are 58%, 643 nM, 120 nM, -9% and 17.8%.
The corresponding values for `O=C(Nc1ccc(CN2CCOCC2)cc1)c1sc2ncnc3c2c1NC(=O)N3c1ccc(Oc2cccc(F)c2)cc1` [Cpd 134, 5-[4-(3-fluoro-phenoxy)-phenyl]-4-oxo-4,5-dihydro-3H-1-thia-3,5,6,8-tetraaza-acenaphthylene-2-carboxylic acid (4-morpholin-4-ylmethyl-phenyl)-amide] are 35%, 87 nM, 21 nM, 49% and 48%.
For `O=C(Nc1ccc(CN2CCOCC2)cc1)c1sc2ncnc3c2c1NC(=O)N3c1ccc(Br)cc1F` [Cpd 53, 5-(4-bromo-2-fluoro-phenyl)-4-oxo-4,5-dihydro-3H-1-thia-3,5,6,8-tetraaza-acenaphthylene-2-carboxylic acid (4-morpholin-4-ylmethyl-phenyl)-amide], the inhibition at 1 µM in assay [1] is -13%. Also, the figures for the inhibition at 2 µM in assay [2], in assay [3] and in assay [4] were 11%, 17% and 34%, respectively.
For `CN1CCN(Cc2ccc(NC(=O)c3sc4ncnc5c4c3NC(=O)N5c3cc(OCc4cccc(F)c4)c(Cl)cc3Cl)cc2)CC1` [Cpd 61, 5-[2,4-dichloro-5-(3-fluoro-benzyloxy)-phenyl]-4-oxo-4,5-dihydro-3H-1-thia-3,5,6,8-tetraaza-acenaphthylene-2-carboxylic acid [4-(4-methyl-piperazin-1-ylmethyl)-phenyl]-amide], in that order: -11%, -2%, 30% and 9%.
With `O=C(Nc1ccc(CN2CCOCC2)cc1)c1sc2ncnc3c2c1NC(=O)N3c1ccc(Oc2ccccc2)c(Cl)c1` [Cpd 138, 5-(3-chloro-4-phenoxy-phenyl)-4-oxo-4,5-dihydro-3H-1-thia-3,5,6,8-tetraaza-acenaphthylene-2-carboxylic acid (4-morpholin-4-ylmethyl-phenyl)-amide], the IC50 in assay [1] was determined as 178 nM; in assay [4] it was 59 nM. Besides, the figures for the inhibition at 2 µM in assay [2] and in assay [3] were 39% and 50%, respectively.
Regarding `O=C(Nc1ccc(CN2CCCCC2)cc1)c1sc2ncnc3c2c1NC(=O)N3c1cc(OCc2cccc(F)c2)c(Cl)cc1Cl` [Cpd 57, 5-[2,4-dichloro-5-(3-fluoro-benzyloxy)-phenyl]-4-oxo-4,5-dihydro-3H-1-thia-3,5,6,8-tetraaza-acenaphthylene-2-carboxylic acid (4-piperidin-1-ylmethyl-phenyl)-amide], the inhibition at 1 µM in assay [1] is -20%. Further, the values for the inhibition at 2 µM in assay [2], in assay [3] and in assay [4] were -16%, 1% and 12%, respectively.
Consider `COc1cc(N2C(=O)Nc3c(C(=O)Nc4ccc(CN5CCOCC5)cc4)sc4ncnc2c34)c(Cl)cc1Cl` [Cpd 44, 5-(2,4-dichloro-5-methoxy-phenyl)-4-oxo-4,5-dihydro-3H-1-thia-3,5,6,8-tetraaza-acenaphthylene-2-carboxylic acid (4-morpholin-1-ylmethyl-phenyl)-amide], for which the inhibition at 1 µM in assay [1] turned out to be 21%. Besides, the inhibition at 2 µM is 45% in assay [2], 49% in assay [3] and 26% in assay [4].
For the compound `COc1cc(NC(=O)c2sc3ncnc4c3c2NC(=O)N4c2ccc(Oc3ccccc3)cc2)ccc1OCCN1CCOCC1` [Cpd 167, 4-oxo-5-(4-phenoxy-phenyl)-4,5-dihydro-3H-1-thia-3,5,6,8-tetraaza-acenaphthylene-2-carboxylic acid [3-methoxy-4-(2-morpholin-4-yl-ethoxy)-phenyl]-amide], the 50% inhibitory concentration (IC50) in assay [1] worked out at 129 nM; in assay [4], 20 nM. The inhibition at 2 µM in assay [2] stood at 35%; in assay [3] it was 51%.

The record behind these values is patent US7579356B2, “Thia-tetraazaacenaphthylene kinase inhibitors” (Janssen Pharmaceutica NV, priority 2005, dated 2009).
